Test results taken from patent publication US8354403B2, “Pyrrolidine derived beta 3 adrenergic receptor agonists” (Merck Sharp & Dohme Corp., priority 2009, dated 2013).

What follows are compounds tested against T1, human β3 adrenergic receptor (Homo sapiens, UniProt P13945) (assay: Beta-3 agonist in vitro functional assay: cAMP production (LANCE TR-FRET) in CHO cells stably transfected with the cloned β3 receptor). Conditions: Table 4; cAMP, CHO cells; read-out: Human β3 agonist functional activity.
T1 construct: expressed in transfected cells; host or cells: Chinese hamster ovary (CHO) cells, stably transfected
Type: cell-based
Experimental: Chinese hamster ovary (CHO) cells, stably transfected with the cloned β-adrenergic receptor (β1, β2 or β3) are harvested after 3 days of subculturing. Harvesting of cells is done with Enzyme-free Dissociation Media (Specialty Media). Cells are then counted and resuspended in assay buffer (Hank's Balanced salt solution supplemented with 5 mM HEPES, […]) containing a phosphodiesterase inhibitor (IBMX, 0.6 mM). The reaction is initiated by mixing 6,000 cells in 6 μL with 6 μL Alexa Fluor labeled cAMP antibody (LANCE™ kit) which is then added to an assay well containing 12 μL of compound (diluted in assay buffer to 2× final concentration). The reaction proceeds for 30 minutes at RT and is terminated by the addition of 24 ul detection buffer (LANCE™ kit). The assay plate is then incubated for 1 h at RT and time-resolved fluorescence measured on a Perkin Elmer Envision reader or equivalent. The unknown cAMP level is determined by comparing fluorescence levels to a cAMP standard curve.
The non-selective, full agonist β-adrenergic ligand isoproterenol is used at all three receptors to determine maximal stimulation. […] Data are analyzed using Microsoft Excel and Graphpad Prism or an internally developed data analysis software package.

T1 sequence (P13945 whole entry): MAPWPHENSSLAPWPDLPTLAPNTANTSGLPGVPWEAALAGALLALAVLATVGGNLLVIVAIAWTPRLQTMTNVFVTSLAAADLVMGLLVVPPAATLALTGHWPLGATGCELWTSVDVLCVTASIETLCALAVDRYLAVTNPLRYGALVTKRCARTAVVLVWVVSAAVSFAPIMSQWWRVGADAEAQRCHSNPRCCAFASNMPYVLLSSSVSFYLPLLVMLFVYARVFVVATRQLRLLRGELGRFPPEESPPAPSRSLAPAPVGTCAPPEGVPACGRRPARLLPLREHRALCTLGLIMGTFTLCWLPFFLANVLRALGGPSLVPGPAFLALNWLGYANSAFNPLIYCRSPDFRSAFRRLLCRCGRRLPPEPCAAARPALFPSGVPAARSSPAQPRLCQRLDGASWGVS

Compound	EC50 [nM]
CO[C@H]1CCN(C(=O)c2ccc(C[C@@H]3CC[C@H]([C@H](O)c4ccccc4)N3)cc2)C1 [Example 8]	100 to 999
CC1(O)CCN(C(=O)c2ccc(C[C@@H]3CC[C@H]([C@H](O)c4ccccc4)N3)cc2)C1 (some centres unmarked) [Example 12]	100 to 999
CO[C@@H]1CCN(C(=O)c2ccc(C[C@@H]3CC[C@H]([C@H](O)c4ccccc4)N3)cc2)C1 [Example 7]	100 to 999

Next, values leading:

EC50 [nM]	Compound
100 to 999	Cc1nc2c(s1)CCN(C(=O)c1ccc(C[C@@H]3CC[C@H]([C@H](O)c4ccccc4)N3)cc1)C2 [Example 52]
100 to 999	O=C(c1ccc(C[C@@H]2CC[C@H]([C@H](O)c3ccccc3)N2)cc1)N1CCCC(c2nc3ccccc3o2)C1 (some centres unmarked) [Example 33]

Same assay, conditions: Table 5; cAMP, CHO cells; read-out: Human β3 agonist functional activity

Compound	EC50 [nM]
O=C(c1ccc(C[C@@H]2CC[C@H]([C@H](O)c3ccccc3)N2)cc1)N1CCC(S(=O)(=O)c2ccccc2)CC1 [Example 127]	10 to 99.9
NC(=O)C1CCN(C(=O)c2ccc(C[C@@H]3CC[C@H]([C@H](O)c4ccccc4)N3)cc2)CC1 [Example 116]	100 to 999
O=C(NC1CCN(C(=O)c2ccc(C[C@@H]3CC[C@H]([C@H](O)c4ccccc4)N3)cc2)CC1)OCc1ccccc1 [Example 68]	10 to 99.9
Cc1cncnc1OC1CCN(C(=O)c2ccc(C[C@@H]3CC[C@H]([C@H](O)c4ccccc4)N3)cc2)CC1 [Example 153]	100 to 999

Next, values leading:

EC50 [nM]	Compound
10 to 99.9	O=C(c1ccc(C[C@@H]2CC[C@H]([C@H](O)c3ccccc3)N2)cc1)N1CCC(Cn2ccncc2=O)CC1 [Example 151]
10 to 99.9	O=C(c1ccc(C[C@@H]2CC[C@H]([C@H](O)c3ccccc3)N2)cc1)N1CCC(Cn2cccn2)CC1 [Example 143]
100 to 999	O=C(c1ccc(C[C@@H]2CC[C@H]([C@H](O)c3ccccc3)N2)cc1)N1CCC(Cn2cccnc2=O)CC1 [Example 150]
1 to 9.9	O=C(c1ccc(C[C@@H]2CC[C@H]([C@H](O)c3ccccc3)N2)cc1)N1CCC(n2ncnn2)CC1 [Example 102]

Same assay, conditions: Table 7; cAMP, CHO cells; ranges as given for Tables 6 and 7; read-out: Human β3 agonist functional activity

EC50 [nM]	Compound
10 to 99.9	N#CC1(c2ncccn2)C2CN(C(=O)c3ccc(C[C@@H]4CC[C@H]([C@H](O)c5ccccc5)N4)cc3)CC21 (some centres unmarked) [Example 237]

Same assay, conditions: Table 8; Beta-3 agonist in vitro functional assay; read-out: Human β3 agonist functional activity

Compound	EC50 [nM]
COc1ccc2c(c1)C(=O)CC1(CCN(C(=O)c3ccc(C[C@@H]4CC[C@H]([C@H](O)c5ccccc5)N4)cc3)CC1)S2(=O)=O [Example 339]	1 to 9.9
O=C(c1ccc(C[C@@H]2CC[C@H]([C@H](O)c3ccccc3)N2)cc1)N1CCC2(CCCC2O)CC1 (some centres unmarked) [Example 314]	100 to 999
O=C(c1ccc(C[C@@H]2CC[C@H]([C@H](O)c3ccccc3)N2)cc1)N1CCC2(CC1)OCCS2(=O)=O [Example 303]	10 to 99.9
O=C(c1ccc(C[C@@H]2CC[C@H]([C@H](O)c3ccccc3)N2)cc1)N1CCC2(CCCC2=O)CC1 [Example 316]	1 to 9.9
CC1COC(=O)C12CCN(C(=O)c1ccc(C[C@@H]3CC[C@H]([C@H](O)c4ccccc4)N3)cc1)CC2 (some centres unmarked) [Example 296]	1 to 9.9
COc1ccc(C2(CNC(=O)C(C)(C)C)CCN(C(=O)c3ccc(C[C@@H]4CC[C@H]([C@H](O)c5cccnc5)N4)cc3)CC2)cc1 [Example 247]	100 to 999
CN1CCC2(CCN(C(=O)c3ccc(C[C@@H]4CC[C@H]([C@H](O)c5ccccc5)N4)cc3)CC2)C1=O [Example 251]	100 to 999
O=C(c1ccc(C[C@@H]2CC[C@H]([C@H](O)c3ccccc3)N2)cc1)N1CCC2(CC1)OCC[S+]2[O-] (some centres unmarked) [Example 304]	100 to 999
O=C1OC2(CCN(C(=O)c3ccc(C[C@@H]4CC[C@H]([C@H](O)c5ccccc5)N4)cc3)CC2)CC1Cc1ccc(F)cc1 (some centres unmarked) [Example 276]	1 to 9.9

Now from value to compound:

EC50 [nM]	Compound
100 to 999	O=C(c1ccc(C[C@@H]2CC[C@H]([C@H](O)c3ccccc3)N2)cc1)N1CCC(C(=O)O)(c2ccccc2)CC1 [Example 241]
1 to 9.9	COc1ccc2c(c1)C(=O)CC1(CCN(C(=O)c3ccc(C[C@@H]4CC[C@H]([C@H](O)c5ccccc5)N4)cc3)CC1)S2 [Example 328]
1 to 9.9	CC1(C)COC(=O)C12CCN(C(=O)c1ccc(C[C@@H]3CC[C@H]([C@H](O)c4ccccc4)N3)cc1)CC2 [Example 298]

Same assay, conditions: Table 9; Beta-3 agonist in vitro functional assay; read-out: Human β3 agonist functional activity

Compound	EC50 [nM]
CC(C)n1nnc(CN2CCN(C(=O)c3ccc(C[C@@H]4CC[C@H]([C@H](O)c5ccccc5)N4)cc3)CC2)n1 [Example 402]	10 to 99.9
O=C(c1ccc(C[C@@H]2CC[C@H]([C@H](O)c3ccccc3)N2)cc1)N1CCN(Cc2ccccc2F)CC1 [Example 410]	10 to 99.9
CC(=O)N1CCN(C(=O)c2ccc(C[C@@H]3CC[C@H]([C@H](O)c4ccccc4)N3)cc2)CC1 [Example 343]	100 to 999
CC(c1nnco1)N1CCN(C(=O)c2ccc(C[C@@H]3CC[C@H]([C@H](O)c4ccccc4)N3)cc2)CC1 (some centres unmarked) [Example 421]	10 to 99.9
CCOC(=O)N1CCN(C(=O)c2ccc(C[C@@H]3CC[C@H]([C@H](O)c4ccccc4)N3)cc2)CC1 [Example 344]	100 to 999
O=C(c1ccc(C[C@@H]2CC[C@H]([C@H](O)c3ccccc3)N2)cc1)N1CCN(c2nccs2)CC1 [Example 378]	10 to 99.9

The next lines start with the values.

EC50 [nM]	Compound
10 to 99.9	Cc1cccnc1N1CCN(C(=O)c2ccc(C[C@@H]3CC[C@H]([C@H](O)c4ccccc4)N3)cc2)CC1 [Example 364]
10 to 99.9	Cn1nnnc1CN1CCN(C(=O)c2ccc(C[C@@H]3CC[C@H]([C@H](O)c4ccccc4)N3)cc2)CC1 [Example 399]
100 to 999	O=C(c1ccc(C[C@@H]2CC[C@H]([C@H](O)c3ccccc3)N2)cc1)N1CCN(c2ccncc2)CC1 [Example 356]
100 to 999	O=C(c1ccc(C[C@@H]2CC[C@H]([C@H](O)c3ccccc3)N2)cc1)N1CCN(C(=O)c2ccco2)CC1 [Example 349]
10 to 99.9	O=C(c1ccc(C[C@@H]2CC[C@H]([C@H](O)c3ccccc3)N2)cc1)N1CCN(Cc2nnn[nH]2)CC1 [Example 398]
1 to 9.9	O=C(c1ccc(C[C@@H]2CC[C@H]([C@H](O)c3ccccc3)N2)cc1)N1CCN(Cc2cnn(-c3ccccc3)n2)CC1 [Example 408]

Same assay, conditions: Table 10; Beta-3 agonist in vitro functional assay; read-out: Human β3 agonist functional activity

Compound	EC50 [nM]
CC1CCCN(C(=O)C(C)N2CCN(C(=O)c3ccc(C[C@@H]4CC[C@H]([C@H](O)c5ccccc5)N4)cc3)CC2)C1 (some centres unmarked) [Example 486]	10 to 99.9
CC(C(=O)NC1CCOCC1)N1CCN(C(=O)c2ccc(C[C@@H]3CC[C@H]([C@H](O)c4ccccc4)N3)cc2)CC1 (some centres unmarked) [Example 468]	100 to 999
CC(C(=O)N1CCCC2(CCCO2)C1)N1CCN(C(=O)c2ccc(C[C@@H]3CC[C@H]([C@H](O)c4ccccc4)N3)cc2)CC1 (some centres unmarked) [Example 497]	10 to 99.9
CC(C(=O)N(C)CCC#N)N1CCN(C(=O)c2ccc(C[C@@H]3CC[C@H]([C@H](O)c4ccccc4)N3)cc2)CC1 (some centres unmarked) [Example 521]	10 to 99.9
CC(C(=O)N1CCc2oncc2C1)N1CCN(C(=O)c2ccc(C[C@@H]3CC[C@H]([C@H](O)c4ccccc4)N3)cc2)CC1 (some centres unmarked) [Example 503]	10 to 99.9
CC(C(=O)NCC(=O)N1CCCC1)N1CCN(C(=O)c2ccc(C[C@@H]3CC[C@H]([C@H](O)c4ccccc4)N3)cc2)CC1 (some centres unmarked) [Example 460]	10 to 99.9

Further lines, results first:

EC50 [nM]	Compound
100 to 999	CC(C(=O)NCc1nccn1C)N1CCN(C(=O)c2ccc(C[C@@H]3CC[C@H]([C@H](O)c4ccccc4)N3)cc2)CC1 (some centres unmarked) [Example 463]
10 to 99.9	CC(C(=O)NCC1(O)CC1)N1CCN(C(=O)c2ccc(C[C@@H]3CC[C@H]([C@H](O)c4ccccc4)N3)cc2)CC1 (some centres unmarked) [Example 449]
10 to 99.9	CC(C(=O)N1CCCCC1C)N1CCN(C(=O)c2ccc(C[C@@H]3CC[C@H]([C@H](O)c4ccccc4)N3)cc2)CC1 (some centres unmarked) [Example 485]
10 to 99.9	CC(C(=O)N1CCC(CO)CC1)N1CCN(C(=O)c2ccc(C[C@@H]3CC[C@H]([C@H](O)c4ccccc4)N3)cc2)CC1 (some centres unmarked) [Example 490]
10 to 99.9	CC(C(=O)N1CCCC2(CCO2)C1)N1CCN(C(=O)c2ccc(C[C@@H]3CC[C@H]([C@H](O)c4ccccc4)N3)cc2)CC1 (some centres unmarked) [Example 495]
100 to 999	CC(C(=O)N1CCOCC1)N1CCN(C(=O)c2ccc(C[C@@H]3CC[C@H]([C@H](O)c4ccccc4)N3)cc2)CC1 (some centres unmarked) [Example 499]
10 to 99.9	CC(C(=O)N1CCCCC1)N1CCN(C(=O)c2ccc(C[C@@H]3CC[C@H]([C@H](O)c4ccccc4)N3)cc2)CC1 (some centres unmarked) [Example 484]

Same assay, conditions: Table 11; cAMP, CHO cells; read-out: Human β3 agonist functional activity

EC50 [nM]	Compound
10 to 99.9	O=C(c1ccc(C[C@@H]2CC[C@H]([C@H](O)c3ccccc3)N2)cc1)N1CCCN(Cc2ccccn2)CC1 [Example 551]

Same assay, conditions: Table 12; human β3 functional activity given as ranges; read-out: Human β3 agonist functional activity

EC50 [nM]	Compound
10 to 99.9	CC(c1nccs1)N1CCN(C(=O)c2ccc(CC3CCC(C(O)c4ccccc4)N3)cc2)CC1 (single isomer, unassigned) [Example 582]
1 to 9.9	O=C(c1ccc(CC2CCC(C(O)c3ccccc3)N2)cc1)N1CCC2(CC1)C(=O)NCC2c1ccc(F)cc1 (single isomer, unassigned) [Example 557]
1 to 9.9	O=C(c1ccc(CC2CCC(C(O)c3ccccc3)N2)cc1)N1CCC2(CC1)CC(C(F)(F)F)OC2=O (single isomer, unassigned) [Example 565]

Same assay, conditions: given as a range; cAMP, CHO cells; read-out: human β3 functional activity

EC50 [nM]	Compound
1 to 9.9	O=C(c1ccc(C[C@@H]2CC[C@H]([C@H](O)c3ccccc3)N2)cc1)N1C[C@@H]2[C@H](C1)[C@H]2c1nnco1 [Example 170]
